In data set [1] the target is T1, Enoyl-[acyl-carrier-protein] reductase [NADH] (Francisella tularensis subsp. tularensis (strain SCHU S4 / Schu 4), UniProt Q5NGQ3).
T1 sequence (Q5NGQ3 whole entry): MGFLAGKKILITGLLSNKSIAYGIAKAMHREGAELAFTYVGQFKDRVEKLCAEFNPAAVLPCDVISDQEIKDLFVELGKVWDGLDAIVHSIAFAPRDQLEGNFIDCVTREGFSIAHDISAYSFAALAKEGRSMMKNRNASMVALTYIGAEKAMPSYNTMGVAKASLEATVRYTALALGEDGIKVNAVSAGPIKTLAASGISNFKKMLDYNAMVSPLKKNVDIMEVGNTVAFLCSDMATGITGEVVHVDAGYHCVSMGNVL

Data set [2] addresses T1, Enoyl-[acyl-carrier-protein] reductase [NADH]. This is another data set of the same source.
The test system of another data set is Bacillus anthracis. Kind of data set: Antibacterial activity against Bacillus anthracis Ames expressing FabI assessed as growth inhibition after 18 to 24 hrs by microdilution method. It is filed as functional. Background: Dilution methods test growth across graded concentrations, often in twofold steps.
The next data set concerns Escherichia coli. Put plainly: Antibacterial activity against Escherichia coli ATCC 25922 expressing FabI assessed as growth inhibition after 18 to 24 hrs by microdilution method. It is filed as functional.
In data set [3] the target is T1, Enoyl-[acyl-carrier-protein] reductase [NADH]. This is another data set of the same source.
Data set [4] can be described thus: Cytotoxicity against mouse Neuro2a cells assessed as cell survival after 72 hrs by CellTiter-96 aqueous one solution assay. It is filed as cell-based, N2a. The settings on record: read-out: LC50.
The nature of data set [5]: Solubility of the compound in DMSO at 125 uM. It is filed as physicochemical.
The subject of data set [6] is Francisella tularensis subsp. tularensis SCHU S4. Put plainly: Antibacterial activity against Francisella tularensis SCHU S4 expressing FabI assessed as growth inhibition after 42 to 48 hrs by microdilution method. It is filed as functional.
Data set [7] in a line: Cytotoxicity against human 786-O cells assessed as cell survival after 72 hrs by CellTiter-96 aqueous one solution assay. It is filed as cell-based, 786-0. The settings on record: read-out: LC50.
The subject of the next data set is Pseudomonas aeruginosa. Kind of data set: Antibacterial activity against Pseudomonas aeruginosa ATCC 27853 expressing FabI, FabV, FabK assessed as growth inhibition after 18 to 24 hrs by microdilution method. It is filed as functional.
The subject of another data set is Staphylococcus aureus. Put plainly: Antibacterial activity against Staphylococcus aureus ATCC 29213 expressing FabI assessed as growth inhibition after 18 to 24 hrs by microdilution method. It is filed as functional.

Each structure is given as a SMILES string. ≈ marks a conversion by molar mass, not a printed value.

The term IC50 denotes the concentration at which inhibition is half-maximal. By Ki is commonly meant the dissociation constant of the complex between target and ligand, obtained from inhibition or displacement. A lower Ki goes with higher affinity. As usually defined, the MIC is the smallest concentration in the dilution series that meets the test's criterion for growth inhibition.

On to `N#Cc1ccc(Oc2ccccc2O)c(F)c1`, for which the IC50 in data set [1] stood at 11 µM.

Turning to `NC(=O)c1ccc(Oc2ccccc2O)c(F)c1`, in data set [1], the IC50 was 6 µM.

For `O=C(COc1ccccc1)NCCSc1c[nH]c2ccccc12`, in data set [2], the affinity corresponds to a Ki of 3.4 µM. For the same compound, the MIC was 43 mg/L (≈ 132 µM) in the data set on Bacillus anthracis; above 343 mg/L with Escherichia coli; 67 µM in data set [6]; above 343 mg/L with Pseudomonas aeruginosa; 86 mg/L (≈ 263 µM) in the data set with Staphylococcus aureus. Further, in data set [3], inhibition was half-maximal at 20 µM (IC50). Further, the CC50 at 72 h in [4] and in data set [7] was 30 µM throughout. In addition, in [5], the solubility result is listed as “soluble”.

In turn, `O=C(CC1CCCCC1)N1CCC(c2nc(-c3ccc(S(=O)(=O)N4CCCC4)cc3)no2)CC1` yielded an inhibition constant (Ki) in data set [2] of 7 µM. The MIC with Bacillus anthracis was above 26 mg/L; in the data set on Escherichia coli it was above 52 mg/L; in data set [6], above 52 mg/L; with Pseudomonas aeruginosa it was above 52 mg/L; in the data set on Staphylococcus aureus, above 52 mg/L. Also, 8 µM corresponded to half-maximal inhibition in [3] (IC50). For the same compound, the CC50 at 72 h was determined as 8 µM in data set [4] and 7 µM in data set [7].

`CCc1ccc(CCOc2ccc(CC3SC(=O)NC3=O)cc2)nc1` (stereo not drawn) [PIOGLITAZONE] showed an IC50 in data set [1] of 79 µM.

`CN(Cc1ccc(C(C)(C)C)cc1)Cc1cccc2ccccc12` [BUTENAFINE] gave an IC50 in data set [1] of 76 µM.

Compound `Oc1cc(Cl)ccc1Oc1ccc(Cl)cc1Cl` [TRICLOSAN] had an IC50 in [3] of 1.3 µM. Also, the CC50 at 72 h in data set [4] came out at 5.4 µM; in [7], 4.2 µM.

As for `CN(Cc1ccccc1N)C(=O)c1cc2ccccc2o1`, in data set [1], it took 45 µM to reach half-maximal inhibition (IC50).

For `O=c1oc2ccccc2c(O)c1Cc1c(O)c2ccccc2oc1=O` [DICUMAROL], the IC50 in [1] is 47 µM.

On to `O=C(O)c1cn(C2CC2)c2cc(N3CCNCC3)c(F)cc2c1=O` [CIPROFLOXACIN], for which the MIC was found to be 0.0312 mg/L (≈ 0.0943 µM) in the data set on Bacillus anthracis; 0.0312 mg/L (≈ 0.0943 µM) in the data set on Escherichia coli; 0.125 mg/L in data set [6]; 1 mg/L (≈ 3.02 µM) with Pseudomonas aeruginosa; 2 mg/L (≈ 6.04 µM) in the data set with Staphylococcus aureus.

The compound `Nc1ccn([C@@H]2O[C@H](CO)[C@@H](O)[C@@H]2O)c(=O)n1` [CYTARABINE] returned an IC50 in [1] of 59 µM. In other words, the double-digit micromolar range.

Regarding `O=C(C(=O)N1CC=C(c2ccccc2)CC1)c1c[nH]c2ccccc12`, the MIC with Bacillus anthracis is above 208 mg/L; in the data set with Escherichia coli, above 413 mg/L; in [6], 39 µM; in the data set on Pseudomonas aeruginosa, above 413 mg/L; in the data set on Staphylococcus aureus it was above 413 mg/L. The IC50 in data set [3] turned out to be 3 µM; in [1], 12 µM. In addition, the CC50 at 72 h in data set [4] was found to be 70 µM; in data set [7], 63 µM.

Source of the values: ChEMBL document CHEMBL2396561 (J Med Chem, 2013).
